Legend:
Type in all cases: in vivo
barnyard grass [1] = assay: Test Example 1: weedkilling efficacy, preemergent weed treatment in the submerged state; A: barnyard grass; conditions: treatment dosage 320 g/ha
How it was run: (§1)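 Submerged pre-emergence treatment, water-surface application of compound emulsion at g/ha dosages; 4 cm flooded alluvial soil, weeds sown and 2.5-leaf rice transplanted same day. Rated after 3 weeks, greenhouse.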

bulrush [2] = assay: Test Example 1: weedkilling efficacy, preemergent weed treatment in the submerged state; B: bulrush; conditions: treatment dosage 320 g/ha
How it was run: as §1

oval-leafed pondweed [3] = assay: Test Example 1: weedkilling efficacy, preemergent weed treatment in the submerged state; C: oval-leafed pondweed; conditions: treatment dosage 320 g/ha
How it was run: as §1

transplanted rice = assay: Test Example 1: preemergent weed treatment in the submerged state, effect on crop; a: transplanted rice; conditions: treatment dosage 320 g/ha
How it was run: as §1

barnyard grass [4] = assay: Test Example 2: weedkilling efficacy, growth period weed treatment in the submerged state; A: barnyard grass; conditions: treatment dosage 320 g/ha
How it was run: (§2)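 Seedlings at 1-2 leaves in 4 cm-deep submerged alluvial soil received emulsion formulations on the water surface, dosed per hectare; effects were judged 3 weeks on.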

bulrush [5] = assay: Test Example 2: weedkilling efficacy, growth period weed treatment in the submerged state; B: bulrush; conditions: treatment dosage 320 g/ha
How it was run: as §2

oval-leafed pondweed [6] = assay: Test Example 2: weedkilling efficacy, growth period weed treatment in the submerged state; C: oval-leafed pondweed; conditions: treatment dosage 320 g/ha
How it was run: as §2

crabgrass = assay: Test Example 3: weedkilling efficacy through soil treatment; D: crabgrass; conditions: soil treatment, treatment dosage 320 g/ha
How it was run: (§3)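 Crop and weed responses were judged three weeks after a uniform surface spray of the water-diluted emulsion at the given g/ha rate. Seeds sat beneath about 1.5 cm of sterilized diluvial soil, and boxes stood in a greenhouse at 25 to 30° C.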

green foxtail = assay: Test Example 3: weedkilling efficacy through soil treatment; E: green foxtail; conditions: soil treatment, treatment dosage 320 g/ha
How it was run: as §3

barnyard grass [7] = assay: Test Example 3: weedkilling efficacy through soil treatment; F: barnyard grass; conditions: soil treatment, treatment dosage 320 g/ha
How it was run: as §3

wild oat = assay: Test Example 3: weedkilling efficacy through soil treatment; G: wild oat; conditions: soil treatment, treatment dosage 320 g/ha
How it was run: as §3

black-grass = assay: Test Example 3: weedkilling efficacy through soil treatment; H: black-grass; conditions: soil treatment, treatment dosage 320 g/ha
How it was run: as §3

Italian ryegrass = assay: Test Example 3: weedkilling efficacy through soil treatment; I: Italian ryegrass; conditions: soil treatment, treatment dosage 320 g/ha
How it was run: as §3

common wind-grass = assay: Test Example 3: weedkilling efficacy through soil treatment; J: common wind-grass; conditions: soil treatment, treatment dosage 320 g/ha
How it was run: as §3

Indian mallow = assay: Test Example 3: weedkilling efficacy through soil treatment; K: Indian mallow; conditions: soil treatment, treatment dosage 320 g/ha
How it was run: as §3

redroot pigweed = assay: Test Example 3: weedkilling efficacy through soil treatment; L: redroot pigweed; conditions: soil treatment, treatment dosage 320 g/ha
How it was run: as §3

fig-leafed goosefoot = assay: Test Example 3: weedkilling efficacy through soil treatment; M: fig-leafed goosefoot; conditions: soil treatment, treatment dosage 320 g/ha
How it was run: as §3

chickweed = assay: Test Example 3: weedkilling efficacy through soil treatment; N: chickweed; conditions: soil treatment, treatment dosage 320 g/ha
How it was run: as §3

catchweed = assay: Test Example 3: weedkilling efficacy through soil treatment; O: catchweed; conditions: soil treatment, treatment dosage 320 g/ha
How it was run: as §3

birds-eye speedwell = assay: Test Example 3: weedkilling efficacy through soil treatment; p: birds-eye speedwell; conditions: soil treatment, treatment dosage 320 g/ha
How it was run: as §3

directly sown rice = assay: Test Example 3: soil treatment, effect on crop; b: directly sown rice; conditions: soil treatment, treatment dosage 320 g/ha
How it was run: as §3

corn = assay: Test Example 3: soil treatment, effect on crop; c: corn; conditions: soil treatment, treatment dosage 320 g/ha
How it was run: as §3

soybean = assay: Test Example 3: soil treatment, effect on crop; d: soybean; conditions: soil treatment, treatment dosage 320 g/ha
How it was run: as §3

wheat = assay: Test Example 3: soil treatment, effect on crop; e: wheat; conditions: soil treatment, treatment dosage 320 g/ha
How it was run: as §3

beet = assay: Test Example 3: soil treatment, effect on crop; f: beet; conditions: soil treatment, treatment dosage 320 g/ha
How it was run: as §3

rapeseed = assay: Test Example 3: soil treatment, effect on crop; g: rapeseed; conditions: soil treatment, treatment dosage 320 g/ha
How it was run: as §3

| SMILES | A: barnyard grass, weed kill grade (barnyard grass [1]) | B: bulrush, weed kill grade (bulrush [2]) | C: oval-leafed pondweed, weed kill grade (oval-leafed pondweed [3]) | a: transplanted rice, effect on crop grade (transplanted rice) | A (barnyard grass) weedkilling efficacy grade (barnyard grass [4]) | B (bulrush) weedkilling efficacy grade (bulrush [5]) | C (oval-leafed pondweed) weedkilling efficacy grade (oval-leafed pondweed [6]) | D: crabgrass, weedkilling efficacy grade (crabgrass) | E: green foxtail, weedkilling efficacy grade (green foxtail) | F: barnyard grass, weedkilling efficacy grade (barnyard grass [7]) | G: wild oat, weedkilling efficacy grade (wild oat) | H: black-grass, weedkilling efficacy grade (black-grass) | I: Italian ryegrass, weedkilling efficacy grade (Italian ryegrass) | J: common wind-grass, weedkilling efficacy grade (common wind-grass) | K: Indian mallow, weedkilling efficacy grade (Indian mallow) | L: redroot pigweed, weedkilling efficacy grade (redroot pigweed) | M: fig-leafed goosefoot, weedkilling efficacy grade (fig-leafed goosefoot) | N: chickweed, weedkilling efficacy grade (chickweed) | O: catchweed, weedkilling efficacy grade (catchweed) | P: birds-eye speedwell, weedkilling efficacy grade (birds-eye speedwell) | further results |
| --- | --- | --- | --- | --- | --- | --- | --- | --- | --- | --- | --- | --- | --- | --- | --- | --- | --- | --- | --- | --- | --- |
| CC(C)(C(=O)Nc1cc(Cl)cc(-c2ccccc2)n1)N1COCN(c2ccccc2)C1=O [A-2-31] | 5 (weed kill ratio 90% or more, (practically complete withering)) | 5 (weed kill ratio 90% or more, (practically complete withering)) | 5 (weed kill ratio 90% or more, (practically complete withering)) | 0 (weed kill ratio 5% or less (practically no effect)) | 5 (weed kill ratio 90% or more, (practically complete withering)) | 5 (weed kill ratio 90% or more, (practically complete withering)) | 4 (weed kill ratio 70% or more, less than 90%) | 2 (weed kill ratio 20% or more, less than 40%) | 2 (weed kill ratio 20% or more, less than 40%) | 2 (weed kill ratio 20% or more, less than 40%) | 2 (weed kill ratio 20% or more, less than 40%) | 3 (weed kill ratio 40% or more, less than 70%) | 1 (weed kill ratio 5% or more, less than 20%) | 4 (weed kill ratio 70% or more, less than 90%) | 0 (weed kill ratio 5% or less (practically no effect)) | 0 (weed kill ratio 5% or less (practically no effect)) | 2 (weed kill ratio 20% or more, less than 40%) | 3 (weed kill ratio 40% or more, less than 70%) | 3 (weed kill ratio 40% or more, less than 70%) | 3 (weed kill ratio 40% or more, less than 70%) | b: directly sown rice, effect on crop grade (directly sown rice): 0 (weed kill ratio 5% or less (practically no effect)); c: corn, effect on crop grade (corn): 0 (weed kill ratio 5% or less (practically no effect)); d: soybean, effect on crop grade (soybean): 0 (weed kill ratio 5% or less (practically no effect)); e: wheat, effect on crop grade (wheat): 0 (weed kill ratio 5% or less (practically no effect)); f: beet, effect on crop grade (beet): 0 (weed kill ratio 5% or less (practically no effect)); g: rapeseed, effect on crop grade (rapeseed): 0 (weed kill ratio 5% or less (practically no effect)) |
| CC(C)(C(=O)Nc1cc(C2CC2)cc(Cl)n1)N1COCN(c2ccccc2)C1=O [A-2-30] | 5 (weed kill ratio 90% or more, (practically complete withering)) | 5 (weed kill ratio 90% or more, (practically complete withering)) | 5 (weed kill ratio 90% or more, (practically complete withering)) | 1 (weed kill ratio 5% or more, less than 20%) | 5 (weed kill ratio 90% or more, (practically complete withering)) | 5 (weed kill ratio 90% or more, (practically complete withering)) | 5 (weed kill ratio 90% or more, (practically complete withering)) | 5 (weed kill ratio 90% or more, (practically complete withering)) | 5 (weed kill ratio 90% or more, (practically complete withering)) | 5 (weed kill ratio 90% or more, (practically complete withering)) | 4 (weed kill ratio 70% or more, less than 90%) | 5 (weed kill ratio 90% or more, (practically complete withering)) | 5 (weed kill ratio 90% or more, (practically complete withering)) | 5 (weed kill ratio 90% or more, (practically complete withering)) | 0 (weed kill ratio 5% or less (practically no effect)) | 0 (weed kill ratio 5% or less (practically no effect)) | 3 (weed kill ratio 40% or more, less than 70%) | 3 (weed kill ratio 40% or more, less than 70%) | 0 (weed kill ratio 5% or less (practically no effect)) | 4 (weed kill ratio 70% or more, less than 90%) | b: directly sown rice, effect on crop grade (directly sown rice): 3 (weed kill ratio 40% or more, less than 70%); c: corn, effect on crop grade (corn): 0 (weed kill ratio 5% or less (practically no effect)); d: soybean, effect on crop grade (soybean): 0 (weed kill ratio 5% or less (practically no effect)); e: wheat, effect on crop grade (wheat): 1 (weed kill ratio 5% or more, less than 20%); f: beet, effect on crop grade (beet): 3 (weed kill ratio 40% or more, less than 70%); g: rapeseed, effect on crop grade (rapeseed): 4 (weed kill ratio 70% or more, less than 90%) |
| Cc1cc(F)nc(NC(=O)C(C)(C)N2COCN(c3ccccc3)C2=O)c1 [A-2-20] | 5 (weed kill ratio 90% or more, (practically complete withering)) | 5 (weed kill ratio 90% or more, (practically complete withering)) | 5 (weed kill ratio 90% or more, (practically complete withering)) | 3 (weed kill ratio 40% or more, less than 70%) | 5 (weed kill ratio 90% or more, (practically complete withering)) | 5 (weed kill ratio 90% or more, (practically complete withering)) | 5 (weed kill ratio 90% or more, (practically complete withering)) | 5 (weed kill ratio 90% or more, (practically complete withering)) | 5 (weed kill ratio 90% or more, (practically complete withering)) | 5 (weed kill ratio 90% or more, (practically complete withering)) | 5 (weed kill ratio 90% or more, (practically complete withering)) | 5 (weed kill ratio 90% or more, (practically complete withering)) | 5 (weed kill ratio 90% or more, (practically complete withering)) | 5 (weed kill ratio 90% or more, (practically complete withering)) | 4 (weed kill ratio 70% or more, less than 90%) | 4 (weed kill ratio 70% or more, less than 90%) | 4 (weed kill ratio 70% or more, less than 90%) | 4 (weed kill ratio 70% or more, less than 90%) | 5 (weed kill ratio 90% or more, (practically complete withering)) | 5 (weed kill ratio 90% or more, (practically complete withering)) | b: directly sown rice, effect on crop grade (directly sown rice): 5 (weed kill ratio 90% or more, (practically complete withering)); c: corn, effect on crop grade (corn): 1 (weed kill ratio 5% or more, less than 20%); d: soybean, effect on crop grade (soybean): 3 (weed kill ratio 40% or more, less than 70%); e: wheat, effect on crop grade (wheat): 3 (weed kill ratio 40% or more, less than 70%); f: beet, effect on crop grade (beet): 4 (weed kill ratio 70% or more, less than 90%); g: rapeseed, effect on crop grade (rapeseed): 4 (weed kill ratio 70% or more, less than 90%) |
